Measured values: patent publication US9409905B2, “Antibacterial compounds and methods for use” (PTC THERAPEUTICS, INC., priority 2011, dated 2016)
≈ marks a conversion by molar mass, not a printed value.

Columns and labels:
E. coli 25922 = test: Antibacterial activity, microbroth dilution MIC (Table 1); assay type: cell-based, Escherichia coli; conditions: Escherichia coli; microbroth dilution; control Gram-negative E. coli 25922 strain; read-out: MIC, 25922
How it was run: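 Lowest concentration stopping macroscopically visible growth under test conditions, by broth microdilution, defines the MIC (μg/mL).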

[1] = test system: Escherichia coli (E. coli) BAS849; test: as above; assay type: cell-based; conditions: microbroth dilution, super sensitive Gram-negative E. coli BAS849, read-out: MIC, BAS849
How it was run: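 Broth microdilution; endpoint = no macroscopic growth; value = lowest inhibiting concn, μg/mL.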

[2] = test system: Staphylococcus aureus (S. aureus) 29213; test: as above; assay type: cell-based; conditions: microbroth dilution, Gram-positive S. aureus 29213, read-out: MIC, 29213
How it was run: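 Potency is reported as minimum inhibitory concentration in μg/mL, determined by broth microdilution as the lowest level of compound that stops growth visible to the eye.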

[3] = test system: Neisseria meningitidis (N. meningitidis) 13090; test: Antibacterial activity, MIC (Table 8); assay type: cell-based
How it was run: (§1)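 Broth microdilution MIC, read as the lowest drug concentration preventing macroscopically visible growth under test conditions and reported in μg/mL.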

[4] = test system: Haemophilus influenzae (H. influenzae) 49247; test: Antibacterial activity, MIC (Table 6); assay type: cell-based
How it was run: as §1

E. coli LZ3111 = test: Antibacterial activity, MIC, quinolone resistant strain (Table 2); assay type: cell-based; conditions: Escherichia coli, LZ3111, read-out: MIC LZ3111
How it was run: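 Lowest concentration giving no macroscopically visible growth was taken as the MIC (μg/mL) after microbroth dilution testing.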

[5] = test system: Moraxella catarrhalis (M. catarrhalis) 25238; test: Antibacterial activity, MIC (Table 7); assay type: cell-based
How it was run: as §1

[6] = test system: Pseudomonas aeruginosa (P. aeruginosa) 27853; test: Antibacterial activity, MIC (Table 5); assay type: cell-based; conditions: P. aeruginosa 27853, read-out: MIC, 27853
How it was run: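 MIC in μg/mL from broth microdilution; endpoint is the lowest drug level giving no visible growth.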

K. pneumoniae MXX1232 = test: Antibacterial activity, MIC, resistant strain (Table 4); assay type: cell-based; conditions: Klebsiella pneumoniae, MXX1232; resistant K. pneumoniae MMX1232, multi-drug resistant clinical isolate; read-out: MIC, MMX1232
How it was run: (§2)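 Values are MICs in μg/mL, read as the lowest compound concentration at which no growth is visible by eye. They come from a microbroth dilution method.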

A. baumannii MXX2240 = test: as above; assay type: cell-based; conditions: Acinetobacter baumannii, MXX2240; resistant A. baumannii MMX2240, multi-drug resistant clinical isolate; read-out: MIC, MMX2240
How it was run: as §2

E. coli ELZ4000 = test: Antibacterial activity, MIC, multi-drug resistant clinical isolate (Table 3); assay type: cell-based; conditions: Escherichia coli, ELZ4000, read-out: MIC ELZ4000
How it was run: (§3)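 Growth inhibition is measured by microbroth dilution, and the minimum inhibitory concentration in μg/mL corresponds to the lowest drug level that prevents visible bacterial growth.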

E. coli ELZ4251 = test: as above; assay type: cell-based; conditions: Escherichia coli
How it was run: as §3

[7] = test system: Klebsiella pneumoniae (K. pneumoniae) 35657; test: Antibacterial activity, MIC (Table 4); assay type: cell-based; conditions: K. pneumoniae 35657, read-out: MIC, 35657
How it was run: as §2

[8] = test system: Acinetobacter baumannii (A. baumannii) BAA747; test: Antibacterial activity, MIC (Table 4); assay type: cell-based; conditions: A. baumannii BAA747, read-out: MIC, BAA747
How it was run: as §2

Row | Compound | MIC (E. coli 25922) | MIC [1] | MIC [2] | MIC [3] | MIC [4] | MIC (E. coli LZ3111) | MIC [5] | MIC [6] | MIC (K. pneumoniae MXX1232) | MIC (A. baumannii MXX2240) | MIC (E. coli ELZ4000) | MIC (E. coli ELZ4251) | MIC [7] | MIC [8]
1 | CCc1c(-c2cnc3c(ccn3C)c2)[nH]c(=O)c(C(=O)O)c1O [Cpd 32, 5-ethyl-4-hydroxy-6-(1-methyl-1H-pyrrolo[2,3-b]pyridin-5-yl)-2-oxo-1,2-dihydropyridine-3-carboxylic acid] | 12.5 to 150 µg/mL (≈ 39.9 to 479 µM) | < 1 µg/mL | 3.5 to 12.5 µg/mL (≈ 11.2 to 39.9 µM) | < 1 µg/mL | 1 to 3.5 µg/mL (≈ 3.19 to 11.2 µM) | 1 to 3.5 µg/mL (≈ 3.19 to 11.2 µM) | 1 to 3.5 µg/mL (≈ 3.19 to 11.2 µM) | 12.5 to 150 µg/mL (≈ 39.9 to 479 µM) | 12.5 to 150 µg/mL (≈ 39.9 to 479 µM) | < 1 µg/mL | 1 to 3.5 µg/mL (≈ 3.19 to 11.2 µM) | < 1 µg/mL | 12.5 to 150 µg/mL (≈ 39.9 to 479 µM) | 12.5 to 150 µg/mL (≈ 39.9 to 479 µM)
2 | CCc1c(-c2ccc3c(c2)cc(CN2CCC(N4CCCCC4)CC2)n3C)[nH]c(=O)c(C(=O)O)c1O [Cpd 251, 6-(2-(1,4′-bipiperidin-1′-ylmethyl)-1-methyl-1H-indol-5-yl)-5-ethyl-4-hydroxy-2-oxo-1,2-dihydropyridine-3-carboxylic acid] | 1 to 3.5 µg/mL (≈ 2.03 to 7.1 µM) | < 1 µg/mL | 3.5 to 12.5 µg/mL (≈ 7.1 to 25.4 µM) | < 1 µg/mL | 1 to 3.5 µg/mL (≈ 2.03 to 7.1 µM) | 3.5 to 12.5 µg/mL (≈ 7.1 to 25.4 µM) | < 1 µg/mL | 12.5 to 150 µg/mL (≈ 25.4 to 304 µM) | 12.5 to 150 µg/mL (≈ 25.4 to 304 µM) | 12.5 to 150 µg/mL (≈ 25.4 to 304 µM) | 12.5 to 150 µg/mL (≈ 25.4 to 304 µM) | 12.5 to 150 µg/mL (≈ 25.4 to 304 µM) | 1 to 3.5 µg/mL (≈ 2.03 to 7.1 µM) | 3.5 to 12.5 µg/mL (≈ 7.1 to 25.4 µM)
3 | CCc1c(-c2ccc3c(c2)cc(CNC2(C)CCC2)n3C)[nH]c(=O)c(C(=O)O)c1O.Cl [Cpd 245, 5-ethyl-4-hydroxy-6-(1-methyl-2-((1-methylcyclobutylamino)methyl)-1H-indol-5-yl)-2-oxo-1,2-dihydropyridine-3-carboxylic acid hydrochloride] | < 1 µg/mL | < 1 µg/mL | 3.5 to 12.5 µg/mL | < 1 µg/mL | < 1 µg/mL | 1 to 3.5 µg/mL | < 1 µg/mL | 3.5 to 12.5 µg/mL | 12.5 to 150 µg/mL | 1 to 3.5 µg/mL | 3.5 to 12.5 µg/mL | 1 to 3.5 µg/mL | < 1 µg/mL | < 1 µg/mL
